# Laboratory results as given in patent US20260218132A1, “METHODS AND MATERIALS FOR GENERATING STEM CELL-DERIVED ENDOCRINE CELL TYPES” (Mayo Foundation for Medical Education and Research, priority 2023, published 2026).
# Tests used:
# [1] = system: delta progenitor cells; experiment: Differentiation of delta progenitor cells to pre-delta cells (stage 5), flow cytometry; assay type: cell-based, human
# Procedure: (§1) The differentiation was carried out in six stages. The generation of PP1 cells from HUES8 cells was carried out using prior protocols with modifications (see, e.g., Pagliuca et al., Cell, 159:428-439 (2014); and Peterson et al., Nat. Commun., 11:Article No. 2241 (14 pages) (2020)); and the delta cell differentiation was further carried out using PP1 cells. The media changes for differentiation were as follows:
# (§2) The cell clusters collected during the course of differentiation at different stages were dissociated into single cell suspension by treating with TrypLE Express at 37° C. for 10 minutes after washing twice with phosphate buffered saline (PBS). The enzyme activity was quenched by adding equal volume of S3 media to prevent further degradation, and dispersed single cells were washed with PBS, fixed in 4% paraformaldehyde (PFA) for 20 minutes and subsequently stored at 4° C. until further use. On the day of staining, the cells were passed through 40 μm filter and washed twice with PBS before permeabilizing in block solution (PBS+0.1% Triton X-100+5% donkey serum; PBST). After 40 minutes of blocking, the cells were incubated with primary antibodies in block solution for 1 hour at room temperature (RT), washed twice with PBST, and then incubated with appropriate secondary antibodies in block solution for 1 hour at RT. Finally, cells were washed twice with PBST and resuspended in PBS at a concentration of 1×10^6 cells/mL. The stained cells were acquired in Attune flow cytometer and were analyzed using FlowJo v10 software. The Pdx1 (R&D Systems, AF2419) antibody was used at 1:250, Nkx6.1 (Iowa Hybridoma Bank, F55A12) at 1:100, insulin (Iowa Hybridoma Bank, GN-ID4) at 1:250, glucagon (LSBio, LS-B10219) at 1:25,000, and somatostatin (Santa Cruz Biotechnologies, SC-25262) at a dilution of 1:8000. The secondary antibodies are either donkey-anti-goat-Alexa Fluor 488 (Invitrogen, A-11055, 1:1000), donkey-anti-rabbit-Alexa Fluor 488 (Invitrogen, A-21206, 1:1000), donkey-anti-rat-Alexa Fluor 594 (Invitrogen, A-21209, 1:1000), or donkey-anti-mouse-Alexa Fluor 647 (Invitrogen, A-31571 1:1000).
# (§3) Compounds that increased the percentage of Pre-Delta (PD) cells (positive for somatostatin (SST) while negative for both insulin (INS) and glucagon (GCG)) and reduced the percentage of polyhormonal cells were considered as hits. […] The library was screened at 20 μM, 2 μM, and 0.2 μM final concentrations (FIG. 22).
# [2] = system: delta progenitor cells; experiment: High-content small molecule screen on delta progenitor cells (step 5); assay type: cell-based, human; conditions: library screened at 20 μM, 2 μM and 0.2 μM
# Procedure: as §3
# [3] = system: PDX1^+/NKX6.1^− PP cells; experiment: Differentiation of PP cells to delta progenitor cells (stage 4), hormone expression by flow cytometry; assay type: cell-based, human; conditions: stage 3 cells treated independently or in combination for 5 days
# Procedure: After 72 hours of culture in mTeSR, the clusters of HUES8 cells were allowed to settle at the bottom of the spinner flask, and spent media was replaced with stage specific differentiation media containing specific growth factors and small molecules.
# as §1
# (§4) The cell clusters collected during the course of differentiation at different stages were dissociated into single cell suspension by treating with TrypLE Express at 37° C. for 10 minutes after washing twice with phosphate buffered saline (PBS). The enzyme activity was quenched by adding equal volume of S3 media to prevent further degradation, and dispersed single cells were washed with PBS, fixed in 4% paraformaldehyde (PFA) for 20 minutes and subsequently stored at 4° C. until further use. […] The stained cells were acquired in Attune flow cytometer and were analyzed using FlowJo v10 software. […]
# [4] = system: PP cells; experiment: PP cells treated with FGF receptor inhibitors along with RA, somatostatin expressing cells; assay type: cell-based, human; conditions: control having only RA, six-well plates, 5 days
# Procedure: as §4, with “use. On the day of staining, the cells were passed through 40 μm filter and washed twice with PBS before permeabilizing in block solution (PBS+0.1% Triton X-100+5% donkey serum; PBST).” for “use.”
# To further explore the specificity of inhibition of FGF receptors, PP cells were treated with five additional FGF receptor inhibitors (AZD4547, erdafitinib, roblitinib, pemigatinib, or BGJ398) along with RA (FIG. 7). […] To find an effective concentration of these compounds, differentiated PP cells were transferred to six-well plates and treated with either control having only RA or each FGF receptor inhibitors along with RA for 5 days and quantified the percentage of somatostatin expressing cells.
# [5] = system: pre-delta cells; experiment: Differentiation of pre-delta cells to SCδ cells (stage 6), flow cytometry and immunohistochemistry; assay type: cell-based, human
# Procedure: as §1, §2
# The differentiated cell clusters or human islets were fixed in 4% PFA and stored at 4° C. until further use. The clusters were washed three times with PBS, set in Histogel (Thermo), embedded in paraffin, and sectioned at 4 μm for histological analysis. Antigen retrieval was performed in citrate buffer (pH 6.5) for 1 hour in boiling water bath on deparaffinized and rehydrated sections, and then allowed to cool for 40 minutes. Sections were then permeabilized and blocked in block solution (PBS+0.1% Triton X-100+5% donkey serum; PBST) for 40 minutes. Primary antibodies were added at appropriate dilutions and incubated overnight at 4° C. On the following day, secondary antibodies were added for 1 hour at room temperature. After thorough rinse with PBST, sections were mounted in Vectashield (Vector Laboratories), covered with coverslips, and sealed with nail polish. The sections were visualized using Zeiss microscope. The secondary antibodies are either donkey-anti-goat-Alexa Fluor 488 (Invitrogen, A-11055, 1:1000), donkey-anti-rabbit-Alexa Fluor 488 (Invitrogen, A-21206, 1:1000), donkey-anti-rat-Alexa Fluor 594 (Invitrogen, A-21209, 1:1000), or donkey-anti-mouse-Alexa Fluor 647 (Invitrogen, A-31571 1:1000).
# [6] = system: pre-delta cells; experiment: High-content small molecule screen and dose response on pre-delta cells (step 6); conditions: for cell loss at higher concentration: dose response, step 6
# Procedure: Clusters were collected from either Stage 3, or Stage 4, or Stage 5 completed flasks, washed three times with PBS, dispersed into single cells using TrypLE Express for 10 minutes, and quenched using S3 media. […] Chemical compounds were then introduced to each well and incubated at 37° C. in a humidified atmosphere. The fresh media and compounds were added every other day by replacing the spent media. After 5 days for Stage 3 completed cells, 4 days for Stage 4 completed cells, and 7 days for Stage 5 completed cells of incubation, the cells were fixed with 4% PFA and stained for insulin, glucagon, and somatostatin as described herein. Stained cells were imaged with the Cellomics Scan Version 6.6.0 (Thermo Scientific HCS Studio). Twenty-five view fields were captured for each well and analyzed. The percentage of cells expressing only somatostatin was calculated for each well.
# Thus, to further increase the percentage of monohormonal SC-δ cells, a small molecule screen on pre-delta cells was conducted, as described earlier with a similar set of criteria (FIG. 2D).
smiles,measurement,setting,value
"Cc1cccc(-c2[nH]ncc2-c2ccc3ncccc3n2)n1 [Alk5 inhibitor II, 2-[5-(6-methylpyridin-2-yl)-1H-pyrazol-4-yl]-1,5-naphthyridine]",monohormonal SC-delta cells on omission of the compound from stage 5,"[1]; Indolactam V and γ-secretase inhibitor XX without Alk5inh II, FIG. 24C",significant reduction in monohormonal SC-delta cells
same,resulting cells express somatostatin,"[1]; delta progenitor cells treated with Alk5i II, FIG. 1D",approximately 8%
same,SC-α cells population,"[1]; stage 5, flow cytometry",14.78±1.72%
same,SC-β cells population,"[1]; stage 5, flow cytometry",5.20±0.72%
same,SST^+GCG^+INS^+ cells,"[1]; stage 5, flow cytometry",15.46±15.07%
same,SST^−GCG^−INS^− cells,"[1]; stage 5, flow cytometry",20.97±7.59%
same,polyhormonal cells,"[1]; stage 5, flow cytometry",54.88±6.74%
same,"pre-delta cells (somatostatin positive, insulin and glucagon negative)","[1]; stage 5, flow cytometry",4.11±1.12%
"c1ccc2c(-c3cnn4cc(-c5ccc(N6CCNCC6)cc5)cnc34)ccnc2c1 [LDN193189, 4-[6-(4-piperazin-1-ylphenyl)pyrazolo[1,5-a]pyrimidin-3-yl]quinolin]","screen outcome, step 5 (increase of pre-delta cells, fewer polyhormonal cells)",[2],primary hits
"CCN(CC)CCCCNc1ncc2cc(-c3cc(OC)cc(OC)c3)c(NC(=O)NC(C)(C)C)nc2n1 [PD173074, 1-tert-butyl-3-[2-[4-(diethylamino)butylamino]-6-(3,5-dimethoxyphenyl)pyrido[2,3-d]pyrimidin-7-yl]urea]",somatostatin expression in PP cells,[3],induced a small population of somatostatin expression
"CC1=C(/C=C/C(C)=C/C=C/C(C)=C/C(=O)O)C(C)(C)CCC1 [RA, retinoic acid]",somatostatin expressing cells,[4],2.53±0.15%
"C=C[C@@]1(C)CC(=O)[C@]2(O)[C@@]3(C)[C@@H](O)CCC(C)(C)[C@@H]3[C@H](O)[C@H](OC(C)=O)[C@@]2(C)O1 [forskolin, [(3R,4aR,5S,6S,6aS,10S,10aR,10bS)-3-ethenyl-6,10,10b-trihydroxy-3,4a,7,7,10a-pentamethyl-1-oxo-5,6,6a,8,9,10-hexahydro-2H-benzo[f]chromen-5-yl]acetate]",SCδ cells,"[5]; 200 μM for 7 days, stage 6, flow cytometry",17.51±0.88%
same,percentage of SC-δ cells after long-term culture,"[5]; forskolin withdrawn from S3 media, cultured for additional two weeks",31.15±1.30%
same,SC-α cells,"[5]; stage 6, flow cytometry",0.79±0.14%
same,SST^+GCG^+INS^+ cells,"[5]; stage 6, flow cytometry",11.02±0.60%
same,SST^−GCG^+INS^+ cells,"[5]; stage 6, flow cytometry",2.36±0.36%
same,cell loss at higher concentration,[6],severe cell loss
"CC(C)[C@H]1C(=O)N[C@H](CO)Cc2c[nH]c3cccc(c23)N1C [indolactam V, (10S,13S)-13-(hydroxymethyl)-9-methyl-10-propan-2-yl-3,9,12-triazatricyclo[6.6.1.0^4,15]pentadeca-1,4(15),5,7-tetraen-11-one]","screen outcome, step 5 (increase of pre-delta cells, fewer polyhormonal cells)",[2],primary hits
same,"dose response, monohormonal SCδ cells","[6]; FIG. 2F, FIG. 24B",dose dependent increase in monohormonal SCδ cells
same,cell loss at higher concentration,[6],severe cell loss
same,"screen outcome, step 6 (increase of monohormonal SC-δ cells)","[6]; library screened at 20 μM, 2 μM and 0.2 μM",primary hits
"C[C@H](NC(=O)Cc1cc(F)cc(F)c1)C(=O)N[C@@H]1C(=O)N(C)c2ccccc2-c2ccccc21 [γ-secretase inhibitor XX, N-[(1S)-2-[[(7S)-6,7-dihydro-5-methyl-6-oxo-5H-dibenz[b,d]azepin-7-yl]amino]-1-methyl-2-oxoethyl]-3,5-difluoro-benzeneacetamide]","screen outcome, step 5 (increase of pre-delta cells, fewer polyhormonal cells)",[2],primary hits
